Assay results reported in PubChem BioAssay (NCI).
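GI50: concentration for 50% inhibition of growth. TGI is the concentration that stops growth completely.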

Experiments:
Experiment in all cases: DTP human tumour cell line panel, 384-well format
786-0 renal = system: 786-0 renal
A498 renal = system: A498 renal
A549 NSCLC = system: A549 NSCLC
ACHN renal = system: ACHN renal
BT-549 breast = system: BT-549 breast
CAKI-1 renal = system: CAKI-1 renal
CCRF-CEM leukemia = system: CCRF-CEM leukemia
COLO 205 colon = system: COLO 205 colon
DU-145 prostate = system: DU-145 prostate
EKVX NSCLC = system: EKVX NSCLC
HCC-2998 colon = system: HCC-2998 colon
HCT-116 colon = system: HCT-116 colon
HCT-15 colon = system: HCT-15 colon
HL-60(TB) leukemia = system: HL-60(TB) leukemia
HOP-62 NSCLC = system: HOP-62 NSCLC
HOP-92 NSCLC = system: HOP-92 NSCLC
HS 578T breast = system: HS 578T breast
HT29 colon = system: HT29 colon
IGROV1 ovarian = system: IGROV1 ovarian
K-562 leukemia = system: K-562 leukemia
KM12 colon = system: KM12 colon
LOX IMVI melanoma = system: LOX IMVI melanoma
M14 melanoma = system: M14 melanoma
MALME-3M melanoma = system: MALME-3M melanoma
MCF7 breast = system: MCF7 breast
MDA-MB-231 breast = system: MDA-MB-231 breast
MDA-MB-435 melanoma = system: MDA-MB-435 melanoma
MDA-MB-468 breast = system: MDA-MB-468 breast
MOLT-4 leukemia = system: MOLT-4 leukemia
NCI-H226 lung = system: NCI-H226 lung
NCI-H23 lung = system: NCI-H23 lung
NCI-H322M lung = system: NCI-H322M lung
NCI-H460 NSCLC = system: NCI-H460 NSCLC
NCI-H522 lung = system: NCI-H522 lung
NCI/ADR-RES ovarian = system: NCI/ADR-RES ovarian
OVCAR-3 ovarian = system: OVCAR-3 ovarian
OVCAR-4 ovarian = system: OVCAR-4 ovarian
OVCAR-5 ovarian = system: OVCAR-5 ovarian
OVCAR-8 ovarian = system: OVCAR-8 ovarian
PC-3 prostate = system: PC-3 prostate
RPMI-8226 leukemia = system: RPMI-8226 leukemia
RXF 393 renal = system: RXF 393 renal
SF-268 CNS = system: SF-268 CNS
SF-295 CNS = system: SF-295 CNS
SF-539 CNS = system: SF-539 CNS
SK-MEL-28 melanoma = system: SK-MEL-28 melanoma
SK-MEL-5 melanoma = system: SK-MEL-5 melanoma
SK-OV-3 ovarian = system: SK-OV-3 ovarian
SN12C renal = system: SN12C renal
SNB-19 CNS = system: SNB-19 CNS
SNB-75 CNS = system: SNB-75 CNS
SR leukemia = system: SR leukemia
SW-620 colon = system: SW-620 colon
T-47D breast = system: T-47D breast
TK-10 renal = system: TK-10 renal
U251 glioblastoma = system: U251 glioblastoma
UACC-257 melanoma = system: UACC-257 melanoma
UO-31 renal = system: UO-31 renal

For `CCC[C@H](Nc1nc(-c2ccc(NC(=O)NCC)c(OC)c2)ncc1C)c1cccnc1`, the GI50 ([…]-0 renal) was 31.7 nM, the TGI (786-0 renal) was 97.5 nM and the GI50 (A498 renal) was 32.1 nM. For the same compound, the TGI (A498 renal) was 479 nM, the GI50 (A549 NSCLC) was 43.4 nM and the TGI (A549 NSCLC) was 17400 nM. The GI50 (ACHN renal) was 55 nM, the TGI (ACHN renal) was 15600 nM and the GI50 (BT-549 breast) was 22.7 nM. For the same compound, the TGI (BT-549 breast) was 59 nM, the GI50 (CAKI-1 renal) was 30 nM and the TGI (CAKI-1 renal) was 14800 nM. The GI50 (CCRF-CEM leukemia) was 20 nM, the TGI (CCRF-CEM leukemia) was 34.5 nM and the GI50 (COLO 205 colon) was 19.3 nM. The TGI (COLO 205 colon) was 41.7 nM, the GI50 (DU-145 prostate) was 30.7 nM and the TGI (DU-145 prostate) was 91.6 nM. The GI50 (EKVX NSCLC) was 43 nM, the TGI (EKVX NSCLC) was 13300 nM and the GI50 (HCC-2998 colon) was 22.9 nM. For the same compound, the TGI (HCC-2998 colon) was 63 nM, the GI50 (HCT-116 colon) was 26.3 nM and the TGI (HCT-116 colon) was 74.5 nM. The GI50 (HCT-15 colon) was 24 nM, the TGI (HCT-15 colon) was 68.3 nM and the GI50 (HL-60(TB) leukemia) was 16.5 nM. For the same compound, the TGI (HL-60(TB) leukemia) was 30.4 nM, the GI50 (HOP-62 NSCLC) was 33.1 nM and the TGI (HOP-62 NSCLC) was 1180 nM. For the same compound, the GI50 (HOP-92 NSCLC) was 30.4 nM, the TGI (HOP-92 NSCLC) was 650 nM and the GI50 (HS 578T breast) was 18.7 nM. For the same compound, the TGI (HS 578T breast) was 37.3 nM, the GI50 (HT29 colon) was 28.9 nM and the TGI (HT29 colon) was 12600 nM. For the same compound, the GI50 (IGROV1 ovarian) was 40.4 nM, the TGI (IGROV1 ovarian) was 12400 nM and the GI50 (K-562 leukemia) was 20.3 nM. For the same compound, the TGI (K-562 leukemia) was 39.6 nM, the GI50 (KM12 colon) was 26.4 nM and the TGI (KM12 colon) was 1180 nM. It also gave a GI50 (LOX IMVI melanoma) of 25.6 nM, a TGI (LOX IMVI melanoma) of 67 nM and a GI50 (M14 melanoma) of 21.8 nM. The TGI (M14 melanoma) was 63.6 nM, the GI50 (MALME-3M melanoma) was 32 nM and the TGI (MALME-3M melanoma) was 15000 nM. The GI50 (MCF7 breast) was 29.6 nM, the TGI (MCF7 breast) was 1360 nM and the GI50 (MDA-MB-231 breast) was 45.2 nM. It also gave a TGI (MDA-MB-231 breast) of 17400 nM, a GI50 (MDA-MB-435 melanoma) of 19.1 nM and a TGI (MDA-MB-435 melanoma) of 38.2 nM. For the same compound, the GI50 (MDA-MB-468 breast) was 16.8 nM, the TGI (MDA-MB-468 breast) was 33.4 nM and the GI50 (MOLT-4 leukemia) was 19.7 nM. It also gave a TGI (MOLT-4 leukemia) of 34.2 nM, a GI50 (NCI-H226 lung) of 26.9 nM and a TGI (NCI-H226 lung) of 75.3 nM. For the same compound, the GI50 (NCI-H23 lung) was 20.7 nM, the TGI (NCI-H23 lung) was 51.6 nM and the GI50 (NCI-H322M lung) was 40.8 nM. For the same compound, the TGI (NCI-H322M lung) was 20600 nM, the GI50 (NCI-H460 NSCLC) was 17.8 nM and the TGI (NCI-H460 NSCLC) was 35.4 nM. It also gave a GI50 (NCI-H522 lung) of 17.6 nM, a TGI (NCI-H522 lung) of 37.8 nM and a GI50 (NCI/ADR-RES ovarian) of 170 nM. For the same compound, the TGI (NCI/ADR-RES ovarian) was 426 nM, the GI50 (OVCAR-3 ovarian) was 19.5 nM and the TGI (OVCAR-3 ovarian) was 43 nM. It also gave a GI50 (OVCAR-4 ovarian) of 48.6 nM, a TGI (OVCAR-4 ovarian) of 8480 nM and a GI50 (OVCAR-5 ovarian) of 798 nM. For the same compound, the TGI (OVCAR-5 ovarian) was 84800 nM, the GI50 (OVCAR-8 ovarian) was 21.1 nM and the TGI (OVCAR-8 ovarian) was 49.2 nM. The GI50 (PC-3 prostate) was 38.5 nM, the TGI (PC-3 prostate) was 16500 nM and the GI50 (RPMI-8226 leukemia) was 18.2 nM. The TGI (RPMI-8226 leukemia) was 32.8 nM, the GI50 (RXF 393 renal) was 16.4 nM and the TGI (RXF 393 renal) was 40.6 nM. For the same compound, the GI50 (SF-268 CNS) was 27.3 nM, the TGI (SF-268 CNS) was 169 nM and the GI50 (SF-295 CNS) was 18.5 nM. For the same compound, the TGI (SF-295 CNS) was 43.1 nM, the GI50 (SF-539 CNS) was 18.3 nM and the TGI (SF-539 CNS) was 36.5 nM. For the same compound, the GI50 (SK-MEL-28 melanoma) was 95.6 nM, the TGI (SK-MEL-28 melanoma) was 16200 nM and the GI50 (SK-MEL-5 melanoma) was 17.5 nM. The TGI (SK-MEL-5 melanoma) was 36.5 nM, the GI50 (SK-OV-3 ovarian) was 34.8 nM and the TGI (SK-OV-3 ovarian) was 1500 nM. The GI50 (SN12C renal) was 37.9 nM, the TGI (SN12C renal) was 10500 nM and the GI50 (SNB-19 CNS) was 35.3 nM. The TGI (SNB-19 CNS) was 10300 nM, the GI50 (SNB-75 CNS) was 33.4 nM and the TGI (SNB-75 CNS) was 11300 nM. For the same compound, the TGI (SR leukemia) was 16.1 nM, the GI50 (SW-620 colon) was 43.4 nM and the TGI (SW-620 colon) was 16500 nM. It also gave a GI50 (T-47D breast) of 71.9 nM, a TGI (T-47D breast) of 14400 nM and a GI50 (TK-10 renal) of 47.3 nM. It also gave a TGI (TK-10 renal) of 16700 nM, a GI50 (U251 glioblastoma) of 25 nM and a TGI (U251 glioblastoma) of 64.6 nM. The GI50 (UACC-257 melanoma) was 74.5 nM, the TGI (UACC-257 melanoma) was 16400 nM and the GI50 (UO-31 renal) was 62.8 nM. It also gave a TGI (UO-31 renal) of 15300 nM.
